Experimental data as given in patent publication US6376666B1 (Nauchno-Issledovatelsky Institut Farmakologii Rossiiskoi …, priority 1994, dated 2002).

Columns and labels:
Format in all cases: in vivo
[1] = system: outbred male mice; assay: rotarod test (myorelaxant activity); conditions: cut-off 120 sec
Procedure: The myorelaxant activity of choosen compounds were studied in the outbred male mice weighing 22-25 g in rotarod test [Voronina T. A. et al., in: “Phenazepam”, Naukova Dumka, Kiev, 1982, p.145]. The animals were placed on the horizontal rotarod (D=2 cm) calibrated for a fixed speed of 4 rpm. According to the rotarod experimental protocol, normal motor coordination was defined by the ability of the animals to remain on the rotarod for an arbitrarily selected time of 120 sec.

[2] = system: outbred male rats; assay: conflict Vogel test (punished licking of water); conditions: M ± mx
Procedure: The study of anxiolytic activity of chosen compounds was carried out in the experiments with outbred male rats weighing 180-200 g in standard conflict Vogel' procedure [Voronina T. A. et al., in: “Phenazepam”, Naukova Dumka, Kiev, 1982, p.89, 93, 146]. The main aim of the initial step of experiments was the training of rats to develop the feeling of thirst with following experience of water licking from bottle in the experimental chamber. The animals were deprived of water for 24 hours and were placed in the test chamber for 5-min adaptation period during which they had free access to the drinking bottle. After another 24 h deprivation period the rats were placed again in the test chamber and were allowed to drink water for 5 sec. Immediately afterwards drinking attempts were punished by electric shock (0,5 mA). Under this collision of drinking and protective reflexes the extremal situation was developed. In this situation the anxiety of punishment prevented the licking process. The number of shocks received throughout a 5-min experimental session was recorded.

[3] = system: cats; assay: hemodynamics and activity of intact heart in cats under anesthesia; conditions: cats i.v.
Procedure: The effects of compounds on the hemodynamics and activity of intact heart were studied in cats under anesthesia. The experiments were carried out under conditions of open chest. The phase curve of aortic blood flow was the main index of cardiac activity. The compounds were administered i.v. in physiological solution. The t-Student' test was used to estimate the statistical significance.

[4] = system: male outbred mice; assay: potentiation of sleep induced by sodium thiopental
Procedure: The possible hypnotic effects of choosen drugs was estimated according to method of potentiation of sleep induced by sodium thiopental. The male outbred mice weighing 20-25 g were injected i.p. with sodium thiopental at dose of 70 mg/kg. Two parameters were estimated: latent time of sleeping and duration of sleep. The used compounds were administered i.p. 30 min prior injection of sodium thiopental.

[5] = system: C57B1/6 mice; assay: open-field test, C57B1/6 mice (active type of emotional-stress reaction); parameters: key to Total activity: sum of all locomotor activity counts (crossings + rearings) in 3 min; conditions: for Central activity (crossings) / Peripheral activity (crossings) / Total activity / Vertical activity (rearings): M ± mx
Text: The main point of this approach consists in comparative analysis of the behavioural effects of tested compounds in two inbred strains of mice Balb/c and C57B1/6 with different hereditary types of emotional-stress reactions (ESR). The anxiolytic effect was estimated as the activation of the locomotor activity of animals with “passive” type of ESR (Balb/c mice). The main index describing the sedative properties of tested drugs was the inhibition of the locomotor activity of mice with “active” type of ESR (C57B1/6 strain). The anxioselectivity was evaluated according to coincidence of doses range which activated or inhibited the behavior of mice of different strains. Earlier this approach has been successfully used for estimation of anxioselective activity of such known drugs as phenazepam [Seredenin S. B. et al., Bull.Exp.Biol.Med., 1979, v.88, N7, p.38; Seredenin S. B. et al., Ann.Inst.Super.Sanita, 1990, v.26, N1, p.81-88], mexidol [Seredenin S. B. et al., Khimiko-Farmatsevt.Zhurnal, 1987, N2, p.134; Vironina T. A., Seredenin S. B., Ann.Inst.Super.Sanita, 1988, v.24, N3, p.461-466] and gidazepam [Seredenin S. B. et al., in: “Gidazepam” Kiev, Naukova Dumka, 1992, p.92; Seredenin S. B., Blednov Yu. A., Phys.Chem.Biol.Med., 1993, v.1, N1, p.53-60].
Male C57B1/6 and Balb/c mice (“Stolbovaya” animal farm), weighing 20-22 g were used. The animals were housed in a separate animal room in groups of ten and maintained on 12 h light-dark cycle (light from 8.00 till 20.00) with free access to standard food and water during two weeks before experiment. Testing was performed between 9.00 and 13.00. Every used compound was administered intraperitoneally in water solutions 30 min before testing (0,1 ml solution per 10 g of weight). The “open-field” apparatus consisted of cylinder closed from one end, illuminated by four 75 W lamps fixed to the walls 100 cm above the floor. The “open-field” apparatus was 100 cm in diameter and white-painted; the floor was marked with 3 black circles and some radial lines divided the floor into 16 peripheral and 8 central segments. 30 min after injection each animal was placed in the same peripheral square on the floor for 3 min of testing after 1 min exposure in the dark chamber. The following behavior variables were recorded: 1) the number of crossings in the peripheral area (peripheral activity); 2) the number of crossings in the central segments (central activity); 3) the number of rearings (vertical activity); 4) the emotionality was measured as the number of defecations during the test. The sum of all types of locomotor activity was marked as total activity. The t-Student test was used for statistical analysis.

[6] = system: Balb/c mice; assay: open-field test, Balb/c mice (passive type of emotional-stress reaction); parameters: key to Total activity: sum of all locomotor activity counts (crossings + rearings) in 3 min; conditions: for effect on the behavior (locomotor activity) of Balb/c mice in open-field test, in words: i.p., screening
Summary of the method: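 Male mice, 20-22 g, dosed i.p. in water 30 min before a 3-min open-field test after 1 min in darkness; peripheral, central, rearing and total activity plus defecations recorded; Student t-test. Anxiolysis read as Balb/c activation, sedation as C57B1/6 inhibition.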

[7] = system: ventricular fibrillations; assay: ventricular fibrillation, 7-min occlusion and reperfusion of coronary artery in anesthetized rats; conditions: anesthetized rats i.v.; bonnecor 1,0, IX 2,0, X (printed) 1,0 mg/kg
Procedure: The experiments were conducted in male rats weighing 180-240 g and anesthetized with nembutal (60 mg/kg i.v.) with open chest and artificial respiration. The occlusion of the left coronary artery was performed 1-2 min after experiment beginning with following reperfusion after 7 min. During this period time according to literature data [Krzeminski T., Grzyb J., Kurcok A., Brus R.: Pol.J.Pharmacol., 1992, 44, Suppl., p.169-170] the maximum number of ventricular fibrillations (70-100%) were registered. The ECG in the 2nd standard lead was recorded in “Mingograph-81”. The number of ventricular fibrillations during occlusion and reperfusion periods, the life menacing arrhythmia (fibrillation+paroxysmal ventricular tachycardia) and total number of arrhythmias were calculated. The known antiarrhythmic drug bonnecor was used as the reference agent [Grigorieva E. K., Gorbunova V. V. in: “New antiarrhythmic drug—bonnecor (the pharmacology and clinical usage)”, M., 1993, p.64-67]. The compounds were injected i.v. at the following doses: bonnecor—1,0 mg/kg, compound IX—2,0 mg/kg, compound XX—1,0 mg/kg. The control animals were administered with the equivalent volume of physiological solution (1,0 ml/kg). 4 series of experiments were carried out in 80 rats. The results were assessed according to the method of point scale: the absence of arrhythmia—0 point, extrasystole—1 point, paroxysmal ventricular tachycardia—2 points, ventricular fibrillation—3 points, fibrillation observed during the occlusion of coronary vessel—4 points. For statistical analysis the Fisher's exact probability and Wilconson's methods were used.
[Krzeminski T., Grzyb J., Kurcok A., Brus R.: Pol.J.Pharmacol., 1992, 44, Suppl., p.169-170] have shown that 7 min occlusion with following reperfusion of coronary artery in anesthetized rats produced the ventricular fibrillation (68-100%). Defibrotide and prostacycline decreased the number of fibrillations. We have studied the antifibrillator activity of some derivatives of 2-mercaptbenzimidazole in this model with disturbances of heart rhythm. Bonnecor (1,0 mg/kg) was used as the reference drug. It is well known that this agent produces apronouncedantifibrillatoryactivity [Grigorieva E. K., Gorbunova V. V. in: “New antiarrhythmic drug-bonnecor (the pharmacology and clinical usage)”, M., 1993, p.64-67].

[8] = 0.5 mg/kg i.p. 30 min before thiopental 70 mg/kg i.p.
[9] = 1.0 mg/kg i.p. 30 min before thiopental 70 mg/kg i.p.
[10] = 5.0 mg/kg i.p. 30 min before thiopental 70 mg/kg i.p.
[11] = 10.0 mg/kg i.p. 30 min before thiopental 70 mg/kg i.p.

Cc1cc2nc(SCCN3CCOCC3)[nH]c2cc1C [XV, 2-[2-(Morpholino)ethylthio]-5,6-dimethylbenzimidazole]
time of remaining on the rotarod ([1]; 0.1 mg/kg): 120 + 0 sec
time of remaining on the rotarod ([1]; 1.0 mg/kg): 120 + 0 sec
time of remaining on the rotarod ([1]; 5.0 mg/kg): 120 + 0 sec
time of remaining on the rotarod ([1]; 10.0 mg/kg): 120 + 0 sec
time of remaining on the rotarod ([1]; 20.0 mg/kg): 120 + 0 sec
number of punished lickings (shocks received in 5-min session) ([2]; 1.0 mg/kg i.p.): 59.1 ± 16.7
number of punished lickings (shocks received in 5-min session) ([2]; 5.0 mg/kg i.p.): 35.3 ± 5.5
number of punished lickings (shocks received in 5-min session) ([2]; 10.0 mg/kg i.p.): 38.0 ± 9.4
number of punished lickings (shocks received in 5-min session) ([2]; 20.0 mg/kg i.p.): 73.9 ± 24.1
effect on heart rate, in words ([3]; dose of 5 mg/kg): small, but statistically significant bradycardia
duration of sleep after sodium thiopental [4, 8]: 78.4 ± 18.2 min
latent time of sleep after sodium thiopental [4, 8]: 2.5 ± 0.2 s
duration of sleep after sodium thiopental [4, 9]: 70.5 ± 13.7 min
latent time of sleep after sodium thiopental [4, 9]: 2.8 ± 0.2 s
duration of sleep after sodium thiopental [4, 10]: 56.8 ± 19.1 min
latent time of sleep after sodium thiopental [4, 10]: 2.3 ± 0.2 s
duration of sleep after sodium thiopental [4, 11]: 74.7 ± 18.7 min
latent time of sleep after sodium thiopental [4, 11]: 2.8 ± 0.3 s
Central activity (crossings) ([5]; 1.0 mg/kg i.p.): 39.0 ± 6.9
Peripheral activity (crossings) ([5]; 1.0 mg/kg i.p.): 87.8 ± 6.7
Total activity ([5]; 1.0 mg/kg i.p.): 138.2 ± 16.1
Vertical activity (rearings) ([5]; 1.0 mg/kg i.p.): 11.4 ± 2.5
Central activity (crossings) ([5]; 5.0 mg/kg i.p.): 36.4 ± 5.7
Peripheral activity (crossings) ([5]; 5.0 mg/kg i.p.): 87.8 ± 14.6
Total activity ([5]; 5.0 mg/kg i.p.): 139.1 ± 22.6
Vertical activity (rearings) ([5]; 5.0 mg/kg i.p.): 14.9 ± 2.3
Central activity (crossings) ([5]; 50.0 mg/kg i.p.): 35.0 ± 8.1
Peripheral activity (crossings) ([5]; 50.0 mg/kg i.p.): 54.1 ± 10.7
Total activity ([5]; 50.0 mg/kg i.p.): 95.4 ± 20.4
Vertical activity (rearings) ([5]; 50.0 mg/kg i.p.): 6.3 ± 1.6
effect on locomotor activity of C57B1/6 mice in open-field test, in words ([5]; i.p., doses that activate Balb/c mice): without any changes in locomotor activity
Number of defecations ([6]; 0.01 mg/kg i.p., M ± mx): 0.5 ± 0.5
Peripheral activity (crossings) ([6]; 0.01 mg/kg i.p., M ± mx): 6.9 ± 1.8
Total activity ([6]; 0.01 mg/kg i.p., M ± mx): 6.9 ± 1.8
Number of defecations ([6]; 0.1 mg/kg i.p., M ± mx): 1.0 ± 0.7
Peripheral activity (crossings) ([6]; 0.1 mg/kg i.p., M ± mx): 11.1 ± 2.1
Total activity ([6]; 0.1 mg/kg i.p., M ± mx): 11.2 ± 2.1
Central activity (crossings) ([6]; 0.5 mg/kg i.p., M ± mx): 0.5 ± 0.4
Number of defecations ([6]; 0.5 mg/kg i.p., M ± mx): 1.6 ± 0.7
Peripheral activity (crossings) ([6]; 0.5 mg/kg i.p., M ± mx): 32.1 ± 4.7
Total activity ([6]; 0.5 mg/kg i.p., M ± mx): 32.6 ± 5.0
Central activity (crossings) ([6]; 1.0 mg/kg i.p., M ± mx): 5.1 ± 4.4
Number of defecations ([6]; 1.0 mg/kg i.p., M ± mx): 2.0 ± 0.9
Peripheral activity (crossings) ([6]; 1.0 mg/kg i.p., M ± mx): 37.7 ± 5.5
Total activity ([6]; 1.0 mg/kg i.p., M ± mx): 42.8 ± 9.9
Number of defecations ([6]; 5.0 mg/kg i.p., M ± mx): 3.6 ± 0.9
Peripheral activity (crossings) ([6]; 5.0 mg/kg i.p., M ± mx): 39.1 ± 8.6
Total activity ([6]; 5.0 mg/kg i.p., M ± mx): 39.1 ± 8.6
Central activity (crossings) ([6]; 10.0 mg/kg i.p., M ± mx): 0.6 ± 0.5
Peripheral activity (crossings) ([6]; 10.0 mg/kg i.p., M ± mx): 44.9 ± 13.0
Total activity ([6]; 10.0 mg/kg i.p., M ± mx): 45.9 ± 13.8
Vertical activity (rearings) ([6]; 10.0 mg/kg i.p., M ± mx): 0.4 ± 0.3 —
Number of defecations ([6]; 75.0 mg/kg i.p., M ± mx): 2.7 ± 1.3
Peripheral activity (crossings) ([6]; 75.0 mg/kg i.p., M ± mx): 8.8 ± 2.9
Total activity ([6]; 75.0 mg/kg i.p., M ± mx): 8.8 ± 2.9
Peripheral activity (crossings) ([6]; 100.0 mg/kg i.p., M ± mx): 6.5 ± 3.1
Total activity ([6]; 100.0 mg/kg i.p., M ± mx): 6.5 ± 3.1
effect on the behavior (locomotor activity) of Balb/c mice in open-field test, in words [6]: able to activate the behavior of Balb/c mice

CCOc1ccc2nc(SCCN3CCCC3)[nH]c2c1 [Compound X, 2-[2-(Pyrrolidino)ethylthio]-5-ethoxybenzimidazole]
antifibrillatory effect, in words [7]: trend to decrease the number of ventricular fibrillations
effect on heart rate, in words ([3]; doses of 0,5 mg/kg-2,0 mg/kg): small and short bradycardia
effect on the behavior (locomotor activity) of Balb/c mice in open-field test, in words [6]: neither activatory nor inhibitory effects
